Experimental findings from ChEMBL document CHEMBL1122874, “Orally absorbable cephalosporin antibiotics. 1. Structure-activity relationships of benzothienyl- and naphthylglycine derivatives of 7-aminodeacetoxycephalosporanic acid” (1985) are described below.

Test [1] has as its system Haemophilus influenzae. Nature of the test: Antibacterial activity against resistant Haemophilus influenzae 76. The format is functional.
The test system of test [2] is Haemophilus influenzae. Nature of the test: Antibacterial activity against sensitive Haemophilus influenzae C.L. The class given is functional.
A further test concerns Streptococcus. Nature of the test: Antibacterial activity against Streptococcus group D X66. The class given is functional.
Test [3] concerns Streptococcus pyogenes. The test is described as follows: Antibacterial activity against Streptococcus pyogenes C203. The class given is functional.
Test [4] relates to Streptococcus pyogenes. The test is described as follows: Antibacterial activity in mice infected with Streptococcus pyogenes C203. The format is functional.
The test system of test [5] is Staphylococcus aureus. Nature of the test: Antibacterial activity in mice infected with Staphylococcus aureus 3055 after oral administration. The format is functional.
Test [6] relates to Staphylococcus aureus. Nature of the test: Antibacterial activity in mice infected with Staphylococcus aureus 3055 after subcutaneous administration. The class given is functional.
For test [7], the system named is Staphylococcus aureus. The test is described as follows: Antibacterial activity against penicillin G sensitive Staphylococcus aureus X1.1. The format is functional.
For test [8], the system named is Streptococcus pneumoniae. The test is described as follows: Antibacterial activity in mice infected with Streptococcus pneumoniae Park1 after oral administration. The format is functional.
For test [9], the system named is Streptococcus pneumoniae. Nature of the test: Antibacterial activity in mice infected with Streptococcus pneumoniae Park1 after subcutaneous administration. The class given is functional.
Test [10] deals with Streptococcus pneumoniae. The test is described as follows: Antibacterial activity in mice infected with Streptococcus pneumoniae Park1. The format is functional.
Test [11] concerns Streptococcus pyogenes. The test is described as follows: Antibacterial activity in mice infected with Streptococcus pyogenes C203 after oral administration. The format is functional.
The test system of test [12] is Streptococcus pyogenes. Nature of the test: Antibacterial activity in mice infected with Streptococcus pyogenes C203 after subcutaneous administration. The class given is functional.
Test [13] relates to Staphylococcus aureus. Nature of the test: Antibacterial activity in mice infected with Staphylococcus aureus 3055. The format is functional.
Test [14] relates to Streptococcus pneumoniae. Nature of the test: Antibacterial activity against Streptococcus pneumoniae Park.
In test [15] the test system is Streptococcus pneumoniae. Nature of the test: Antibacterial activity against Streptococcus pneumoniae Park. The format is functional.

The structures appear in SMILES notation. ≈ marks a conversion by molar mass, not a printed value.

`CC1=C(C(=O)O)N2C(=O)C(NC(=O)[C@@H](N)c3csc4ccccc34)C2SC1` (stereo not given in full): the MIC against Haemophilus influenzae [1] worked out at 0.5 µg/mL (≈ 1.24 µM); against Haemophilus influenzae [2], 2 µg/mL (≈ 4.96 µM); in the test on Streptococcus, 128 µg/mL (≈ 317 µM); in the test on Streptococcus pyogenes [3] it was 0.5 µg/mL (≈ 1.24 µM); against Streptococcus pyogenes [4], 0.5 µg/mL (≈ 1.24 µM); in the test with Staphylococcus aureus [7], 1 µg/mL (≈ 2.48 µM). The MIC in the test on Streptococcus pneumoniae [10] was found to be 1 µg/mL (≈ 2.48 µM); against Staphylococcus aureus [13], 1 µg/mL (≈ 2.48 µM); in the test with Streptococcus pneumoniae [14], 0.5 µg/mL (≈ 1.24 µM). Besides, the ED50 was found to be 0.6 mg/kg with Staphylococcus aureus [5]; 0.4 mg/kg in the test on Staphylococcus aureus [6]; 16 mg/kg in the test with Streptococcus pneumoniae [8]; 18 mg/kg in the test with Streptococcus pneumoniae [9]; 1.7 mg/kg in the test on Streptococcus pyogenes [11]; 2.3 mg/kg in the test with Streptococcus pyogenes [12].

As to `CC1=C(C(=O)O)N2C(=O)C(NC(=O)[C@H](N)c3csc4cccc(F)c34)C2SC1` (stereo not given in full), the MIC in the test with Haemophilus influenzae [1] was determined as 4 µg/mL (≈ 9.49 µM); in the test with Haemophilus influenzae [2], 16 µg/mL (≈ 38 µM); against Streptococcus pneumoniae [15] it was 4 µg/mL (≈ 9.49 µM); in the test with Streptococcus pyogenes [3], 1 µg/mL (≈ 2.37 µM); with Staphylococcus aureus [7] it was 4 µg/mL (≈ 9.49 µM).

The term ED50 denotes the dose at which the effect has come halfway, by size or by number of responders. A higher ED50 goes with weaker potency.
